Where “and” joins values, the source holds several entries; their conditions need not be identical. Equal values may be shown once. Records with an inconclusive call do not appear. Numbered stars: 1 amine (or outer) side, 2 acyl side, 3 side chain; on linkers, the order of the positions; unused ones are H or OH. Square brackets hold non-standard residues; d marks the D form. Peptide text beside a SMILES is read from it. * marks the point of attachment. X2 = CCC(=O)CC1CC(C)CC(C(=O)[*:2])N1[*:1]; X1 = CCCCCCCCC(C)C(=O)*; Aib = CC(C)(N)C(=O)O; X3 = CC(CN(C)CCO)N*
Tested on: nude mice, LX-1 lung xenograft intrarenal, tumor weight T/C
Assay: NCI In Vivo Anticancer Drug Screen. Data for tumor model Human Lung LX-1 Xenograft (intrarenal inoculation) in NU/NU Swiss (nude) mice
Conditions: endpoint: mean tumor weight change, higher = larger tumour
Summary of the method: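 Readout: T/C, i.e. treated-group tumor measurement over vehicle-control measurement. Mice bearing transplantable tumors were dosed with compound or vehicle.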

[1] = dose: 6.25 mg/kg/injection, schedule: Q01DX010 (sc), vehicle: saline
[2] = dose: 12.5 mg/kg/injection, schedule: Q01DX010 (sc), vehicle: saline
[3] = dose: 400.0 mg/kg/injection, schedule: Q01DX010 (sc), vehicle: saline
[4] = dose: 300.0 mg/kg/injection, schedule: Q04DX003 (sc), vehicle: Klucel (hydroxypropylcellulose) (HPC)
[5] = dose: 1200.0 mg/kg/injection, schedule: Q04DX003 (sc), vehicle: Klucel (hydroxypropylcellulose) (HPC)
[6] = dose: 75.0 mg/kg/injection, schedule: Q04DX003 (sc), vehicle: saline with Tween-80
[7] = dose: 150.0 mg/kg/injection, schedule: Q04DX003 (sc), vehicle: saline with Tween-80
[8] = dose: 300.0 mg/kg/injection, schedule: Q04DX003 (sc), vehicle: saline with Tween-80
[9] = dose: 600.0 mg/kg/injection, schedule: Q04DX003 (sc), vehicle: saline with Tween-80
[10] = dose: 100.0 mg/kg/injection, schedule: Q01DX010 (sc), vehicle: Klucel (hydroxypropylcellulose) (HPC)
[11] = dose: 1200.0 mg/kg/injection, schedule: Q04DX003 (sc), vehicle: saline with Tween-80
[12] = dose: 800.0 mg/kg/injection, schedule: Q04DX003 (sc), vehicle: saline with Tween-80
[13] = dose: 600.0 mg/kg/injection, schedule: Q04DX003 (sc), vehicle: Klucel (hydroxypropylcellulose) (HPC)
[14] = dose: 300.0 mg/kg/injection, schedule: Q04DX003 (sc), vehicle: suspension in saline
[15] = dose: 600.0 mg/kg/injection, schedule: Q04DX003 (sc), vehicle: suspension in saline

For COC1=C(NC(C)=O)C(=O)c2nc(-c3nc(C(=O)O)c(C)c(-c4ccc(OC)c(OC)c4O)c3N)ccc2C1=O, the T/C (dose: 25.0 mg/kg/injection, schedule: Q04DX003 (sc), vehicle: Klucel (hydroxypropylcellulose) (HPC)) was 63 % of control, the T/C (dose: 50.0 mg/kg/injection, schedule: Q04DX003 (sc), vehicle: Klucel (hydroxypropylcellulose) (HPC)) was 55 % of control and the T/C (dose: 100.0 mg/kg/injection, schedule: Q04DX003 (sc), vehicle: Klucel (hydroxypropylcellulose) (HPC)) was 40 % of control.

For C=C1C(C)C2C(Cc3ccccc3)NC(=O)C23C(OC(C)=O)/C=C/C(C)(O)CC(C)C/C=C/C3C1O (stereo not drawn), the T/C (dose: 6.25 mg/kg/injection, schedule: Q04DX003 (sc), vehicle: Klucel (hydroxypropylcellulose) (HPC)) was 112 % of control and the T/C (dose: 12.5 mg/kg/injection, schedule: Q04DX003 (sc), vehicle: Klucel (hydroxypropylcellulose) (HPC)) was 112 % of control.

With CC(C)=CC(=O)OC1C2C(C)=CC(=O)C(O)C2(C)C2C3(O)OCC24C(CC(=O)OC14)C(C)C3O (stereo not drawn) the T/C (dose: 1.25 mg/kg/injection, schedule: Q04DX003 (sc), vehicle: distilled water + Tween-80) was 92 % of control and the T/C (dose: 2.5 mg/kg/injection, schedule: Q04DX003 (sc), vehicle: distilled water + Tween-80) was 90 % of control.

For OCCOCC(F)(F)F, the T/C (dose: 300.0 mg/kg/injection, schedule: Q04DX003 (sc), vehicle: saline) was 78 % of control and the T/C (dose: 600.0 mg/kg/injection, schedule: Q04DX003 (sc), vehicle: saline) was 95 % of control.

With CN1CCN(CCCN2c3ccccc3Sc3ccc(C(F)(F)F)cc32)CC1 the T/C [1] was 97 % of control, the T/C [2] was 124 % of control and the T/C (dose: 100.0 mg/kg/injection, schedule: Q01DX010 (sc), vehicle: saline) was 63 % of control and 66 % of control and 87 % of control. For the same compound, the T/C [3] was 31 % of control.

For Cc1cc(Nc2ccc3c(c2)OCO3)c2cc3c(cc2n1)OCO3, the T/C (dose: 150.0 mg/kg/injection, schedule: Q04DX003 (sc), vehicle: Klucel (hydroxypropylcellulose) (HPC)) was 113 % of control, the T/C [4] was 155 % of control and the T/C [5] was 123 % of control.

O=C(O)CC(NC(=O)CP(=O)(O)O)C(=O)O.[NH-]C1CCCCC1[NH-].[Pt+2] (stereo not drawn) was tested, and the T/C (dose: 6.25 mg/kg/injection, schedule: Q04DX003 (sc), vehicle: dextrose) was 86 % of control, the T/C (dose: 12.5 mg/kg/injection, schedule: Q04DX003 (sc), vehicle: dextrose) was 72 % of control and the T/C (dose: 25.0 mg/kg/injection, schedule: Q04DX003 (sc), vehicle: dextrose) was 54 % of control.

With O=C1OC(C(O)CO)C(O)=C1O (stereo not drawn) the T/C [3] was 205 % of control, the T/C (dose: 800.0 mg/kg/injection, schedule: Q01DX010 (sc), vehicle: saline) was 110 % of control and the T/C (dose: 1600.0 mg/kg/injection, schedule: Q01DX010 (sc), vehicle: saline) was 153 % of control.

In the case of O=C1CN(Cc2ccc3c(c2)OCO3)NO1, the T/C [6] is reported as 63 % of control, the T/C [7] is reported as 76 % of control and the T/C [8] is reported as 63 % of control. For the same compound, the T/C [9] was 46 % of control.

With CNC(=O)n1c(N)nc(-c2ccccc2)c1-c1ccccc1 the T/C (dose: 37.5 mg/kg/injection, schedule: Q04DX003 (sc), vehicle: saline with Tween-80) was 114 % of control, the T/C [6] was 122 % of control and the T/C [7] was 57 % of control.

CC(=O)OCC1OC(OC2=C(CC=C(C)C)C(=O)c3ccccc3C2=O)C(OC(C)=O)C(OC(C)=O)C1OC(C)=O (stereo not drawn) was tested, and the T/C (dose: 12.5 mg/kg/injection, schedule: Q01DX010 (sc), vehicle: Klucel (hydroxypropylcellulose) (HPC)) was 61 % of control, the T/C (dose: 25.0 mg/kg/injection, schedule: Q01DX010 (sc), vehicle: Klucel (hydroxypropylcellulose) (HPC)) was 119 % of control and the T/C (dose: 50.0 mg/kg/injection, schedule: Q01DX010 (sc), vehicle: Klucel (hydroxypropylcellulose) (HPC)) was 97 % of control. For the same compound, the T/C [10] was 83 % of control.

For Cn1ccc(=Nc2ccc(NC(=O)c3ccc(N=c4ccn(C)c5ccc([N+](=O)[O-])cc45)cc3[N+](=O)[O-])cc2)cc1, the T/C [8] was 93 % of control, the T/C [9] was 75 % of control and the T/C [11] was 86 % of control. For the same compound, the T/C (dose: 2400.0 mg/kg/injection, schedule: Q04DX003 (sc), vehicle: saline with Tween-80) was 83 % of control.

In the case of C[N+](C)(C)c1cc2c(nn1)Nc1ccccc1S2, the T/C [10] is reported as 89 % of control.

CCOC(=O)[C@]1(Br)CC[C@@]1(Br)C(=O)OCC was tested, and the T/C [12] was 107 % of control and the T/C [11] was 123 % of control.

In the case of CC1(c2ccc(Cl)cc2)OC(=O)C(=Cc2ccc([N+](=O)[O-])s2)C(=O)O1 (stereo not drawn), the T/C (dose: 200.0 mg/kg/injection, schedule: Q04DX003 (sc), vehicle: saline with Tween-80) is reported as 111 % of control, the T/C [12] is reported as 80 % of control and the T/C (dose: 1600.0 mg/kg/injection, schedule: Q04DX003 (sc), vehicle: saline with Tween-80) is reported as 118 % of control.

With CCCCCCCCC(C)C(=O)N1CCCC1C(=O)N1C(CC(=O)CC)CC(C)CC1C(=O)NC(C)C(=O)NC(C)(C)C(=O)NC(C)(C)C(=O)NC(C(=O)NC(C)C(=O)NC(C)(C)C(=O)NC(C)(C)C(=O)NC(C)CN(C)CCO)C(C)CC (stereo not drawn) (X1-P[X2]A[Aib][Aib]IA[Aib][Aib]-X3; configuration not given here) the T/C (dose: 5.0 mg/kg/injection, schedule: Q04DX003 (sc), vehicle: Klucel (hydroxypropylcellulose) (HPC)) was 270 % of control.

With COc1cccc2c1C(=O)c1c(O)c3c(c(O)c1C2=O)CC(O)(/C(C)=N/NC(=O)CCC(=O)N/N=C(\C)C1(O)Cc2c(O)c4c(c(O)c2C(OC2CC(N)C(O)C(C)O2)C1)C(=O)c1c(OC)cccc1C4=O)CC3OC1CC(N)C(O)C(C)O1 (stereo not drawn) the T/C (dose: 6.25 mg/kg/injection, schedule: Q01DX010 (sc), vehicle: water) was 21 % of control (2×) and 27 % of control and the T/C (dose: 12.5 mg/kg/injection, schedule: Q01DX010 (sc), vehicle: water) was 31 % of control and 46 % of control and 51 % of control.

For C[C@]12CCC(=O)C=C1CC[C@@H]1[C@@H]2C(=O)C[C@@]2(C)[C@H]1CC[C@]2(O)C(=O)CO, the T/C [4] was 38 % of control, the T/C [13] was 34 % of control and the T/C [5] was 52 % of control.

For CCN(CC)CCCC(C)Nc1c2ccc(Cl)cc2nc2ccc(OC)cc12 (stereo not drawn), the T/C (dose: 12.5 mg/kg/injection, schedule: Q01DX010 (sc), vehicle: saline with Tween-80) was 98 % of control, the T/C (dose: 25.0 mg/kg/injection, schedule: Q01DX010 (sc), vehicle: saline with Tween-80) was 102 % of control and 108 % of control and the T/C [7] was 75 % of control. For the same compound, the T/C [8] was 41 % of control.

For COc1cccc2c1C(=O)c1c(O)c3c(c(O)c1C2=O)C[C@H](O)C[C@@H]3OC1CC(N)C(O)C(C)O1 (stereo partly drawn), the T/C [1] was 25 % of control, the T/C [2] was 336 % of control and the T/C (dose: 25.0 mg/kg/injection, schedule: Q01DX010 (sc), vehicle: saline) was 101 % of control.

For Cc1cc(NCCCCCCNc2cc(C)nc3cc(N(C)C)ccc23)c2ccc(N(C)C)cc2n1, the T/C (dose: 75.0 mg/kg/injection, schedule: Q04DX003 (sc), vehicle: distilled water + Tween-80 + alcohol) was 46 % of control and the T/C (dose: 150.0 mg/kg/injection, schedule: Q04DX003 (sc), vehicle: distilled water + Tween-80 + alcohol) was 44 % of control.

In the case of CCC1(O)CC2CN(CCc3c([nH]c4ccccc34)C(C(=O)OC)(c3cc4c(cc3OC)N(C)C3C(O)(C(N)=O)C(O)C5(CC)C=CCN6CCC43C65)C2)C1 (stereo not drawn) (tested in a mixture with another compound), the T/C (dose: 1.5 mg/kg/injection, schedule: Q04DX003 (sc), vehicle: water) is reported as 28 % of control.

With N#CCCN(C(=S)Nc1cccc(C(F)(F)F)c1)C1CCCCC1 the T/C [4] was 60 % of control, the T/C [13] was 55 % of control and the T/C [5] was 77 % of control. The T/C (dose: 2400.0 mg/kg/injection, schedule: Q04DX003 (sc), vehicle: Klucel (hydroxypropylcellulose) (HPC)) was 80 % of control.

In the case of N=c1nc2n(cc1F)[C@@H]1O[C@H](CO)[C@@H](O)[C@@H]1O2, the T/C [14] is reported as 102 % of control, the T/C [15] is reported as 57 % of control and the T/C (dose: 1200.0 mg/kg/injection, schedule: Q04DX003 (sc), vehicle: suspension in saline) is reported as 80 % of control. The T/C (dose: 2400.0 mg/kg/injection, schedule: Q04DX003 (sc), vehicle: suspension in saline) was 87 % of control.

CSC(SC)=C1C(=O)NC(=O)NC1=O was tested, and the T/C (dose: 150.0 mg/kg/injection, schedule: Q04DX003 (sc), vehicle: suspension in saline) was 68 % of control, the T/C [14] was 102 % of control and the T/C [15] was 42 % of control.

For O=C1C=C2C(=CCOC2O)O1 (stereo not drawn), the T/C (dose: 1.0 mg/kg/injection, schedule: Q04DX003 (sc), vehicle: Klucel (hydroxypropylcellulose) (HPC)) was 158 % of control, the T/C (dose: 2.0 mg/kg/injection, schedule: Q04DX003 (sc), vehicle: Klucel (hydroxypropylcellulose) (HPC)) was 92 % of control and the T/C (dose: 8.0 mg/kg/injection, schedule: Q04DX003 (sc), vehicle: Klucel (hydroxypropylcellulose) (HPC)) was 151 % of control.

— PubChem BioAssay AID264 (DTP/NCI, 2004)
